According to patent publication US12668803B2, “Glypican-3-specific modified aptamer and use thereof” (APTAMER SCIENCES INC., priority 2019, dated 2026):

Columns and labels:
HepG2 = test: Cellular internalization of gemcitabine-bound chemically optimized aptamers; format: cell-based; settings: analysis in HepG2 and A431 cells, FIGS. 20 to 22
Description: [The source words this procedure for another cell line and reports this cell line under the same test.] 5 aptamer libraries prepared by truncating the 12-10 aptamer at various lengths [12-12 (35-mer), 12-11 (29-mer), 12-13 (24-mer), 12-14 (23-mer), and 12-15 (18-mer)] were subjected to cellular internalization analysis. In detail, a 6-well plate was prepared, and a round cover glass was placed in the 6-well plate. Huh-7 cells were cultured in the 6-well plate according to the method of Example 1-3. 5 μM of the aptamer stock was mixed with 5×SB18 buffer to prepare the aptamer at a concentration of 4 μM, and heated at 95° C. for 5 min, and then cooled at room temperature for 15 min or more. The next day, the medium was removed from the cultured cells, and a serum-free medium was added thereto, and cultured under conditions of 37° C. and 5% CO2 for 1 hr. The serum-free medium was removed, and then the cells were washed with 2 mL of 1×PBS. KRPH buffer was added, and cultured under conditions of 37° C. and 5% CO2 for 1 hr. 4 μM aptamer was diluted to 25 nM, and then cultured under conditions of 37° C. and 5% CO2 for 1 hr or 4 hr. Washing was repeated three times with 2 mL of 1×PBS. Washing was performed in a shaker at room temperature for 10 min while blocking the light. Thereafter, the cells were fixed by treatment with 4% paraformaldehyde at 4° C. for 10 min. Washing was repeated three times with 2 mL of 1×PBS. […]

[1] = Serum stability analysis (urea PAGE); format: in vitro ADME, human
Description: To examine whether 12-12, combi 5 aptamer, combi 4 and combi 5 modified aptamers bound with three or five gemcitabines are stable in the human serum, serum stability was analyzed. In detail, 10 μL of […] was added to 100% human serum, followed by incubation at 37° C. for 0 hr, 1 hr, 3 hr, 6 hr, 12 hr, and 24 hr. After incubation, 5 μL of […] was added, and distilled water was added to a volume of 250 μL. 250 μL of phenol:chloroform:isoamyl alcohol (25:24:1) was added in the equal volume, followed by stirring. Each sample was centrifuged at 16000×g for 10 min. The supernatant was transferred to a new tube, and completely dried. The resultant was diluted with 5× sample buffer and distilled water, and boiled at 95° C. for 5 min, and cooled. The sample was separated by urea PAGE (Polyacrylamide gel Electrophoresis) at 220 V for 25 min, and then stained with SYBR gold and examined using a Gel Doc™ EZ system.

[2] = tested on: GPC3-expressing hepatoma cells; test: Cell-killing effect (CCK-8) of gemcitabine-bound combi aptamers; format: cell-based; settings: FIG. 23 and FIG. 24
Description: In detail, Huh-7 cells (ATCC, Rockville, MD, USA) were seeded in a 96-well plate at a density of 1×10^4/mL, and cultured using a DMEM (Gibco, Grand Island, NY, USA) medium containing 10% FBS (Gibco, Grand Island, NY, USA) and 1% antibiotics (penicillin/streptomycin) under conditions of 5% CO2 and 37° C. Next day, the aptamer stock (100 μM) was mixed with 5×SB18 buffer to prepare the stock at a concentration of 80 μM, and heated at 95° C. for 5 min, and then cooled at room temperature for 15 min or more. The medium was removed from the cultured cells, and 100 μL of a serum-free medium was added thereto, and cultured under conditions of 37° C. and 5% CO2 for 1 hr. The serum-free medium was removed, and then the cells were washed with 100 μL of 1×PBS. 100 μL of KRPH buffer was added, and cultured under conditions of 37° C. and 5% CO2 for 1 hr. The aptamer was diluted with KRPH buffer to 2-fold of the desired concentration, and added to a 96-well plate at 1× concentration, and cultured under conditions of 37° C. and 5% CO2 for 4 hr. After treatment with the aptamer, the KRPH buffer was removed, and then 100 μL of culture medium was added and cultured under conditions of 37° C. and 5% CO2 for […]. 6 days later, 10 μL of a kit solution of CCK-8 (Cell Counting Kit-8) was added to each well, and then cultured under conditions of 37° C. and 5% CO2 for 3 hr. Cell death levels were examined at […] using a microplate reader.

Combi 5 G(3) (DNA GNGAANGCGNNGAANNANWYSSSNNCAGNCANCAC; gemcitabines, 2'-OMe, 2'-F, BzdU, 3' idT; Combi 5 G(3); (1)..(1) G is 2-O-Methoxy-DNA.; (2)..(2) n is BzdU.; (3)..(3) G is 2-O-Methoxy-DNA.; (4)..(4) A is 2-Fluorine-DNA.; (5)..(5) A is 2-Fluorine-DNA.; (6)..(6) n is BzdU.; (10)..(10) n is BzdU.; (11)..(11) n is BzdU.; (12)..(12) G is 2-Fluorine-DNA.; (13)..(13) A is 2-Fluorine-DNA.; (14)..(14) A is 2-O-Methoxy-DNA.; (15)..(15) n is BzdU.; (16)..(16) n is BzdU.; (17)..(17) A is 2-O-Methox)
cellular internalization (HepG2): excellent cellular internalization
half-life in the human serum ([1]; 100% human serum, 37° C., FIG. 28): about 64 hr
improvement of serum half-life compared with 12-12 aptamer ([1]; human serum): ≥ 10 times
concentration from which a cell-killing effect is shown [2]: 100 nM
